Reference: ChEMBL document CHEMBL1122977, “A new class of cardiotonic agents: structure-activity correlations for natural and synthetic analogues of the alkaloid A new class of A new class of cardiotonic agents: structure-activity correlations for natural and synthetic analogues of the alkaloid pumiliotoxin B …” (J Med Chem, 1985)

Key:
Conditions in all cases: Cardiac atrium
Cavia porcellus [1] = organism: Cavia porcellus; experiment: Effect on rate of atrial contractions induced by PTX-B in guinea pig (control value); assay type: functional, organism-based
Cavia porcellus [2] = organism: Cavia porcellus; experiment: Effect on force of atrial contractions induced by PTX-B in guinea pig (control value); assay type: functional
Cavia porcellus [3] = organism: Cavia porcellus; experiment: Effect on force of atrial contractions induced by PTX-B in guinea pig; assay type: functional, organism-based
Cavia porcellus [4] = organism: Cavia porcellus; experiment: Effect on rate of atrial contractions induced by PTX-B in guinea pig; assay type: functional, organism-based

COC(=O)C1=C(C)NC(C)=C(C(=O)OC)C1c1ccccc1[N+](=O)[O-] [NIFEDIPINE]
IC50 (Cavia porcellus [1]): 600 nM | IC50 (Cavia porcellus [2]): 400 nM | IC50 (Cavia porcellus [3]): 6 µM | IC50 (Cavia porcellus [4]): 12 µM

COc1ccc(CCN(C)CCCC(C#N)(c2ccc(OC)c(OC)c2)C(C)C)cc1OC (stereo not drawn) [VERAPAMIL]
IC50 (Cavia porcellus [1]): 700 nM | IC50 (Cavia porcellus [2]): 800 nM | IC50 (Cavia porcellus [3]): 10 µM | IC50 (Cavia porcellus [4]): 16 µM
